# Reference: patent US20060183909A1, “Compositions derived from quinoline and quinoxaline, preparation and use thereof” (priority 2001, published 2006)
# System: xanthurenic acid receptor
# Test: Screening: displacement of [3H]-XA binding to synaptic membranes at a fixed concentration
# Conditions: not given
# Method: If this concentration produces the same or greater displacement than the same concentration of non-radiolabelled XA, then an IC50 is determined. […] The incubation time is 25 min. […] The filters are placed in scintillation vials to which 5 ml of Rotiszint® (Roth) are added and the vials are counted in a Beckman LS6000sc liquid scintillation counter. Specific binding is given as the difference between total binding and nonspecific binding. The percentage inhibition of binding that the synthetic compounds produce is calculated for each compound in relation to its positive control.
row,Compound,"effect on xanthurenic acid binding, in words"
1,"O=C(O)c1cc(O)c2cccc(Br)c2n1 [Compound 3x, 4-hydroxy-8-bromo-quinoline-2-carboxylic acid]",increase the binding of xanthurenic acid
2,"Cl.NCCCc1cc(O)c2nc(C(=O)O)cc(O)c2c1 [Compound 22c, 4,8-dihydroxy-6-(3-amino-propyl)-quinoline-2-carboxylic acid hydrochloride]",increase the binding of xanthurenic acid

# Same assay, conditions: compound at 10 μM; 200 nM [3H]-XA, synaptic membranes
row,Compound,real increase in total binding (potentiation)
1,"O=C(O)c1cc(O)c2cccc(Br)c2n1 [Compound 3x, 4-hydroxy-8-bromo-quinoline-2-carboxylic acid]",(+200% real increase
2,"Cl.NCCCc1cc(O)c2nc(C(=O)O)cc(O)c2c1 [Compound 22c, 4,8-dihydroxy-6-(3-amino-propyl)-quinoline-2-carboxylic acid hydrochloride]",(+100% real increase

# Same assay, conditions: compound at 10 μM; 200 nM [3H]-XA, synaptic membranes; xanthurenic acid set arbitrarily to 100%
row,Compound,% inhibition of XA binding at 10 μM*
1,COc1cccc2ccc(C(=O)O)nc12,13%
2,"Nc1cc(C(=O)O)nc2c(N)cccc12 [17'b, 4,8-diamino-quinoline-2-carboxylic acid]",7.7%
3,"O=C(O)c1cc(O)c2c(Br)ccc(O)c2n1 [Compound 3c, 4,8-dihydroxy-5-bromo-quinoline-2-carboxylic acid]",42%
4,"Cc1ccc(O)c2nc(C(=O)O)cc(O)c12 [Compound 3e, 4,8-dihydroxy-5-methyl-4-quinoline-2-carboxylic acid]",48%
5,"O=C(O)c1cc(O)c2c(CO)ccc(O)c2n1 [Compound 3g, 4,8-dihydroxy-5-hydroxymethyl-4-quinoline-2-carboxylic acid]",84%
6,"Cc1cc(O)c2nc(C(=O)O)cc(O)c2c1 [Compound 3n, 4,8-dihydroxy-6-methyl-quinoline-2-carboxylic acid]",21.2%
7,"Cc1ccc(N)c2nc(C(=O)O)cc(O)c12 [Compound 3v, 4-hydroxy-5-methyl-8-amino-quinoline-2-carboxylic acid]",23.4%
8,"Cc1cc(N)c2nc(C(=O)O)cc(O)c2c1 [Compound 3w, 4-hydroxy-6-methyl-8-amino-quinoline-2-carboxylic acid]",0%
9,"O=C(O)c1cc(O)c2cccc(Br)c2n1 [Compound 3x, 4-hydroxy-8-bromo-quinoline-2-carboxylic acid]",Potentiation
10,"O=C(O)c1cc(O)c2cccc(OCc3ccccc3)c2n1 [Compound 3y, 4-hydroxy-8-benzyloxy-quinoline-2-carboxylic acid]",120%
11,"Nc1cccc2ccc(C(=O)O)nc12 [Compound 4f, 8-amino-quinoline-2-carboxylic acid]",0%
12,"COc1ccc(Br)c2ccc(C(=O)O)nc12 [Compound 4g, 8-methoxy-5-bromo-quinoline-2-carboxylic acid]",0%
13,"O=C(O)c1cc(-c2ccccc2)c2cccc(O)c2n1 [Compound 10b, 8-hydroxy-4-phenyl-quinoline-2-carboxylic acid]",94.5%
14,"O=C(O)c1cc(O)c2c(-c3ccccc3)ccc(O)c2n1 [Compound 19a, 4,8-dihydroxy-5-phenyl-quinoline-2-carboxylic acid]",1.8%
15,"COc1ccc(-c2cc(O)c3nc(C(=O)O)cc(O)c3c2)cc1 [Compound 19g, 4,8-dihydroxy-6-(4-methoxy-phenyl)-quinoline-2-carboxylic acid]",54.5%
16,"CCCc1cc(O)c2nc(C(=O)O)cc(O)c2c1 [Compound 19r, 4,8-dihydroxy-6-propyl-quinoline-2-carboxylic acid]",58.1%
17,"O=C(O)c1ccc2c(-c3ccccc3)ccc(O)c2n1 [Compound 19t, 8-hydroxy-5-phenyl-quinoline-2-carboxylic acid]",50%
18,"O=C(O)c1cc(O)c2cc(CCc3ccccc3)cc(O)c2n1 [Compound 22a, 4,8-dihydroxy-6-phenethyl-quinoline-2-carboxylic acid]",54%
19,"CCCCCCCc1cc(O)c2nc(C(=O)O)cc(O)c2c1 [Compound 22b, 4,8-dihydroxy-6-heptyl-quinoline-2-carboxylic acid]",38%
20,"Cl.NCCCc1cc(O)c2nc(C(=O)O)cc(O)c2c1 [Compound 22c, 4,8-dihydroxy-6-(3-amino-propyl)-quinoline-2-carboxylic acid hydrochloride]",Potentiation
21,"O=C(O)c1cc(O)c2cc(CNCc3ccccc3)cc(O)c2n1 [Compound 26a, 4,8-dihydroxy-6-(benzylamino-methyl)-quinoline-2-carboxylic acid]",0%
22,"CC(=O)Nc1cccc2c(O)cc(C(=O)O)nc12 [Compound 28a, 8-acetylamino-4-hydroxy-quinoline-2-carboxylic acid]",0%
23,"CC(C)(C)C(=O)Nc1cccc2c(O)cc(C(=O)O)nc12 [Compound 28b, 8-pivaloylamino-4-hydroxy-quinoline-2-carboxylic acid]",0%
24,"O=C(Nc1cccc2c(O)cc(C(=O)O)nc12)c1ccccc1 [Compound 28c, 8-benzoylamino-4-hydroxy-quinoline-2-carboxylic acid]",48.5%

row,Compound,% inhibition of XA binding at 10 μM*
1,"Cl.Nc1cc(N)c2nc(C(=O)O)cc(O)c2c1 [Compound 32d, 6,8-diamino-4-hydroxy-quinoline-2-carboxylic acid hydrochloride]",117%
2,"COC(=O)c1cc(O)c2cc(Nc3ccccc3)cc(N)c2n1 [Compound 33c, Methyl-6-(N-anilino)-8-amino-4-hydroxy-quinoline-2-carboxylate]",97%
3,"O=C(O)c1cc(O)c2cccc(F)c2n1 [Compound 36c, 8-fluoro-4-hydroxy-quinoline-2-carboxylic acid]",94%
4,"NC(=O)c1cccc2c(O)cc(C(=O)O)nc12 [Compound 37c, 8-carboxamide-4-hydroxy-quinoline-2-carboxylate acid]",77%
5,"CNc1cc(C(=O)O)nc2c(N)cccc12.Cl [Compound 38d, 4-(N-methylamino)-8-amino-quinoline-2-carboxylic acid hydrochloride]",72%
6,"O=C(O)c1nc2c(O)cccc2c(O)c1CN1CCOCC1 [Compound 39b, 3-(N-morpholinomethyl)-4,8-dihydroxy-quinoline-2-carboxylic acid]",77%
7,"O=C(O)c1nc2c(OCc3ccccc3)cccc2c(O)c1CN1CCCC1 [Compound 40a, 3-(N-pyrrolidinomethyl)-8-benzyloxy-4-hydroxy-quinoline-2-carboxylic acid]",83%
8,"CN(C)c1cccc2c(O)cc(C(=O)O)nc12 [Compound 41d, 8-dimethylamino-4-hydroxy-quinoline-2-carboxylic acid]",43%
9,"O=C(O)c1nc2c(O)cccc2c(O)c1Br [Compound 52c, 3-bromo-4,8-dihydroxy-quinoline-2-carboxylic acid]",143%
10,"O=C(O)c1cc(O)c2ccc(CCc3ccccc3)c(O)c2n1 [Compound 55b, 4,8-dihydroxy-7-phenethyl-quinoline-2-carboxylic acid]",103%
11,"O=C(O)c1nc2c(O)c(Br)ccc2c(O)c1Br [Compound 56c, 3,7-dibromo-4,8-dihydroxy-quinoline-2-carboxylic acid]",112%
12,"O=C(O)c1nc2c(O)cccc2[nH]c1=O [Compound 59c, 8-hydroxy-3-oxo-3,4-dihydroquinoxaline-2-carboxylic acid]",97%
13,"O=C(O)CC1Nc2c(O)cccc2NC1=O (stereo not shown) [Compound 60c, [8-(hydroxy)-3-oxo-3,4-dihydroquinoxaline-2(1H)-yl]acetic acid]",69%
14,"Cl.O=C(O)c1cc(O)c2cc(C3CCCCN3)cc(O)c2n1 (stereo not shown) [Compound 61b, 4,8-dihydroxy-6-piperidin-2-yl-quinoline-2-carboxylic acid hydrochloride]",97%
15,"Cl.O=C(O)c1cc(O)c2cccc(-c3nn[nH]n3)c2n1 [Compound 62b, 4-hydroxy-8-(2H-tetrazol-5-yl)-quinoline-2-carboxylic acid hydrochloride]",94%
16,"N#Cc1cc(Br)cc2c(O)cc(C(=O)O)nc12 [Compound 63c, 6-bromo-8-cyano-4-hydroxy-quinoline-2-carboxylic acid]",46%
17,"N#Cc1cc(-c2ccccc2)cc2c(O)cc(C(=O)O)nc12 [Compound 64b, 8-cyano-4-hydroxy-6-phenyl-quinoline-2-carboxylic acid]",14%
18,"N#Cc1cc(CCc2ccccc2)cc2c(O)cc(C(=O)O)nc12 [Compound 65d, 8-cyano-4-hydroxy-6-phenethyl-quinoline-2-carboxylic acid]",18%
19,"N#Cc1cccc2c(O)c(Br)c(C(=O)O)nc12 [Compound 66b, 3-bromo-8-cyano-4-hydroxy-quinoline-2-carboxylic acid]",69%
20,"N#Cc1cccc2c(O)c(C#Cc3ccccc3)c(C(=O)O)nc12 [Compound 67c, 8-cyano-4-hydroxy-3-phenylethynyl-quinoline-2-carboxylic acid]",0%
21,"CCc1cc(C#N)c2nc(C(=O)O)cc(O)c2c1 [Compound 69d, 8-cyano-6-ethyl-4-hydroxy-quinoline-2-carboxylic acid]",26%
22,"Nc1ccc(-c2ccccc2)c2c(O)cc(C(=O)O)nc12 [Compound 73c, 5-phenyl-8-amino-4-hydroxy-quinoline-2-carboxylic acid]",69%
23,"Nc1ccc(CCCO)c2c(O)cc(C(=O)O)nc12 [Compound 75c, 5-hydroxypropyl-8-amino-4-hydroxy quinoline-2-carboxylic acid]",31%

# Same assay, conditions: compound at 50 μM; 200 nM [3H]-XA, synaptic membranes; xanthurenic acid set arbitrarily to 100%
row,Compound,% inhibition of XA binding at 50 μM*
1,"Cc1ccc(S(=O)(=O)Nc2cc(C(=O)O)nc3c(O)cccc23)cc1 [Compound 16a, 8-hydroxy-4-(toluene-4-sulfonylamino)-quinoline-2-carboxylic acid]",77%
